Series [1] concerns HEK293 cells. In words: Cell death (trypan blue) after induction of intron-controlled caspase 9. It is filed as cell-based, human. The following applies: HEK293 with SYNP-CASP9-INT, DTT 2 mM. How it is done:
Transfection was performed as previously described. DTT was added at 2 mM and forskolin was added at 10 μM. The latter was carried out to determine whether forskolin could induce the removal of the intron. Amongst other things, forskolin has potential gene therapy applications. Induction of intron removal was measured as function of cell death, with higher cell death an indicator of removal of the intron.
Experiments were performed as described in the methods namely, HEK or CHO-s cells were transfected with the aforementioned construct and incubated for 24 h. After this time the activating compound DTT or Forskolin was added, % cell death was then measured at 3, 5 and 24 h post-induction.
Induction of intron was measured as function of cell death, using the Countess II cell counter (Thermofisher). Cells were stained with trypan blue to ascertain cell viability. 10 μl of cell suspension was added to a Haemocytomer and analysed on the countess.

For another series, the system named is UPR. In words: Induction of UPR by candidate inducers, EGFP read-out from SYNP-ATF6-02. The following applies: HEK293F with SYNP-ATF6-02; DTT 2 mM, palmitate 0.5 mM, MF-43 1 μM; 0-24 hrs. It is filed as cell-based, human. How it is done:
Experiments were performed to assess the ability of several candidate agents to induce the UPR. The ability of these candidate inducers to induce UPR was assessed using the techniques essentially as described above. The additional candidates tested were 0.5 mM palmitic acid, 1 uM MF-43 (2-methyl-5-(6-(4-(2-(trifluoromethyl)phenoxy)piperidin-1-yl)pyridazin-3-yl)-1,3,4-thiadiazole), which is an inhibitor of stearoyl-CoA desaturase, and a combination of both of these (for the same concentrations of each was used).
In these experiments transfections were done in 24-well plates as previously described. The SYNP-ATF6-02 plasmid (i.e. SYNP-ATF6-02 in pMA-RQ vector) was transfected into HEK293F cells and after 24 hrs GFP was measured. Induction of the UPR was then stimulated using the aforementioned inducers and samples were taken and measured at 0, 1, 3, 5 and 24 hrs after induction. GFP expression was measured as previously described. Results are the average of 3 individual experiments and the error bars represent the standard deviation.
Experimental procedure in brief: • 40 ml of cells were grown in a 250 ml vented Erlenmeyer flask (Sigma-Aldrich CLS431144) at 37° C., 8% CO2 with agitation at 100 rpm. […]
AAV production on induction of UPR: The ATF6 plasmid (i.e. SYNP-ATF6-02 in pMA-RQ vector) was transfected into HEK293 cells as previously described. 24 hrs later GFP was measured. […] EGFP fluorescence was then measured after 1, 3, 5 and 24 hrs. […]

In another series the test system is HEK293-F cells. Description: Luciferase expression from UPR-inducible promoters with different minimal promoters after 2 mM DTT. The series is classed as cell-based, human. The text has this:
The purpose of this experiment was to test the ATF6-containing UPR-responsive cis-regulatory element (also referred to herein as an enhancer) as used in the examples above with different minimal promoters and to further assess their inducibility and tightness of control. To this end, the ATF6-containing UPR-responsive cis-regulatory element was operably linked to the CMV-MP and MinTK (herpes thymidine kinase minimal promoter) minimal promoters The constructs were synthesised by GeneART by chemical synthesis, as above.
As described above, the enhancer sequence contains 6 repeats of the sequence TGACGTGCT (which contains the ATF6 consensus sequence, TGACGTG) spaced by 20 bp spacer sequences. The enhancer sequence was coupled to either MinTK (in construct ATF06-MP001) or CMV-MP (in construct ATF06-MP002).
Transfection of HEK293-F cells was performed as previously described. DTT was added at a concentration of 2 mM. Luciferase activity was measured as previously described. The results are shown in FIG. 17—the DTT was added at time=0 h as shown on the X-axis (units are hours).

For a further series, the system named is CHO cells. In words: SEAP activity from intron-containing SEAP construct after DTT induction. The series is classed as cell-based, Chinese hamster. The procedure:
(§1) Experiments were performed essentially as described in the above methods, namely, HEK or CHO-s cells were transfected with the aforementioned construct (pMA-RQ) and incubated for 24 hrs. After this time the activating compound DTT was added at 2 mM final concentration, SEAP activity was then measured at 3, 5 and 24 hrs post-induction.
(§2) The protocol for transfection for 24 well plates was as described in Example 1. Thereafter: • Supernatant was measured for SEAP activity after 24 hrs. • Intron splicing from the SEAP construct was measured after addition of either 2 mM DTT by monitoring of SEAP activity after 3, 5 and 24 hrs. • SEAP activity was measured as per manufacturer's instructions, Roche, SEAP reporter gene assay kit, obtained from Sigma-Aldrich, Cat. No. 11 779 842 001.

For series [2], the system named is HEK293 cells. The series is described as above. The series is classed as cell-based, human. The procedure: as §1, §2
A further series concerns CHO-S cells. In words: EGFP fluorescence from regulatable-intron construct before and after UPR induction with 2 mM DTT. The series is classed as cell-based, Chinese hamster. The procedure:
(§3) The standard protocol for transfection of these cells was modified for 24 well plates as follows: • 40 ml of cells were grown in a 250 ml vented Erlenmeyer flask (Sigma-Aldrich CLS431144) at 37° C., 8% CO2 with agitation at 100 rpm. Cells were seeded as described in the manufacturer's instructions. • 1 day before transfection cells were counted using a haemocytometer and split to 500,000 cells/ml. • On the day of transfection cells are seeded to 1 million cells/ml in 500 μl of appropriate medium in a 24 well plate. • 0.625 μg of DNA/well was then added to 10 μl of OptiMem medium (Thermofisher; 11058021) and incubated for 5 minutes at room temperature. • Concurrently 0.625 μl of Max reagent was made up to 10 μl by addition of OptiMem and incubated for 5 minutes at room temperature. • After this incubation both mixes were added to the same tube and incubated at room temperature for 25-30 minutes. • The DNA/Max reagent mix (20 μl/well) was then added directly to the cells and the cells incubated as described previously. • Cells were then measured for GFP fluorescence after 24 hrs. • Intron splicing from the GFP construct was measured via addition of 2 mM DTT and monitoring of GFP fluorescence after 1 hr. DTT is a strong reducing agent which induces ER stress by disrupting the formation of disulphide bonds within the ER. […]

A further series has as its system HEK293F cells. The description is as above. It is filed as cell-based, human. How it is done: as §3

From patent US11492618B2, “Expression control using a regulatable intron” (ASKLEPIOS BIOPHARMACEUTICAL, INC., priority 2017, dated 2022) come the findings set out here.

`O[C@H](CS)[C@H](O)CS` (racemic) [DTT, Dithiothreitol]: the “time after treatment at which % of dead cells is equal to the positive control” value in the series with HEK293 cells [1] worked out at 5 h. Besides, the “number of dead cells after 3 h” value with HEK293 cells [1] (3 h) is recorded as “close to the control construct which contained no intron”. In addition, the “induction of UPR indicated by expression of functional EGFP” value (“induction of UPR indicated” below) in the series on UPR is recorded as “very potent inducer of the UPR”.

`Cc1nnc(-c2ccc(N3CCC(Oc4ccccc4C(F)(F)F)CC3)nn2)s1` [MF-43, 2-methyl-5-(6-(4-(2-(trifluoromethyl)phenoxy)piperidin-1-yl)pyridazin-3-yl)-1,3,4-thiadiazole]: in the series with UPR, the “induction of UPR indicated” value is “effectively induced the UPR”.

With `CCCCCCCCCCCCCCCC(=O)O` [palmitate, palmitic acid], the “induction of UPR indicated” value in the series with UPR was “effectively induced the UPR”.

For “ATF06-MP001: ATF6 enhancer (6 repeats, 20 bp spacers) coupled to MinTK driving luciferase (SEQ ID NO: 59)”, in the series on HEK293-F cells (2 mM DTT), the “inducibility of luciferase expression by DTT” value was “good inducibility” and the “luciferase expression after induction of the UPR versus CMV-IE promoter” value was “significantly higher than provided by the constitutive CMV-IE promoter”. Moreover, the “luciferase expression prior to addition of DTT” value with HEK293-F cells (before 2 mM DTT) is recorded as “negligible expression”.

In the case of “SEAP-ATF6-001: SEAP expression construct with 6×ATF6 spaced by 20 bp, CMV-MP and regulatable intron (SEQ ID NO: 34)”, the “SEAP expression after 24 h higher than CMV-IE” value in the series on CHO cells (2 mM DTT, 24 h, CMV-IE shown in HEK293) is around 2 fold; in the series with HEK293 cells [2] (HEK293, 2 mM DTT, 24 h), around 2 fold. In addition, the “SEAP expression before induction” value is listed as “no SEAP expression” in the series with CHO cells (no DTT) and “no SEAP expression” in the series on HEK293 cells [2] (HEK293, no DTT).

As for “SYNP-XBP-01: CMV-MP controlling expression of EGFP with XBP1 intron (SEQ ID NO: 28), in plasmid pMA-RQ”, in the series with CHO-S cells (2 mM DTT), the “GFP fluorescence induced upon addition of 2 mM DTT” value is reported as above 1000 fold. The “background GFP fluorescence before induction” value is reported as “no background at all” with CHO-S cells (no DTT) and “considerably lower than the control” with HEK293F cells (no DTT, versus control). Further, in the series with HEK293F cells (2 mM DTT, 1 hr after treatment, 3 independent experiments), the “GFP production induced upon inducing ER-Stress” value is 4-10 fold. Also, in the series with HEK293F cells (after 2 mM DTT, control CMV-MP-GFP), the “resultant GFP activity higher than the positive control” value was 2.5-7 fold.
